The source of these data is patent US7709526B2, “Use of cyclolignans and new cyclolignans” (Biovitrum AB, priority 2001, dated 2010).

One data set addresses IGF-1R (Homo sapiens, UniProt P08069). The data set can be described thus: Effect on IGF-1R (method not given).
The next data set has as its system rats. The settings on record: relative to podophyllotoxin; cited from earlier work.
For a further data set, the system named is malignant cells. The data set can be described thus: Cell death in malignant cells. Type of data set: cell-based.
The next data set relates to microtubuli. The settings on record: relative to podophyllotoxin; cited from earlier work.
The next data set deals with isolated IGF-1R kinase (Homo sapiens, UniProt P08069). The settings on record: cited from earlier work.
Sequence of isolated IGF-1R kinase (P08069 31-1367): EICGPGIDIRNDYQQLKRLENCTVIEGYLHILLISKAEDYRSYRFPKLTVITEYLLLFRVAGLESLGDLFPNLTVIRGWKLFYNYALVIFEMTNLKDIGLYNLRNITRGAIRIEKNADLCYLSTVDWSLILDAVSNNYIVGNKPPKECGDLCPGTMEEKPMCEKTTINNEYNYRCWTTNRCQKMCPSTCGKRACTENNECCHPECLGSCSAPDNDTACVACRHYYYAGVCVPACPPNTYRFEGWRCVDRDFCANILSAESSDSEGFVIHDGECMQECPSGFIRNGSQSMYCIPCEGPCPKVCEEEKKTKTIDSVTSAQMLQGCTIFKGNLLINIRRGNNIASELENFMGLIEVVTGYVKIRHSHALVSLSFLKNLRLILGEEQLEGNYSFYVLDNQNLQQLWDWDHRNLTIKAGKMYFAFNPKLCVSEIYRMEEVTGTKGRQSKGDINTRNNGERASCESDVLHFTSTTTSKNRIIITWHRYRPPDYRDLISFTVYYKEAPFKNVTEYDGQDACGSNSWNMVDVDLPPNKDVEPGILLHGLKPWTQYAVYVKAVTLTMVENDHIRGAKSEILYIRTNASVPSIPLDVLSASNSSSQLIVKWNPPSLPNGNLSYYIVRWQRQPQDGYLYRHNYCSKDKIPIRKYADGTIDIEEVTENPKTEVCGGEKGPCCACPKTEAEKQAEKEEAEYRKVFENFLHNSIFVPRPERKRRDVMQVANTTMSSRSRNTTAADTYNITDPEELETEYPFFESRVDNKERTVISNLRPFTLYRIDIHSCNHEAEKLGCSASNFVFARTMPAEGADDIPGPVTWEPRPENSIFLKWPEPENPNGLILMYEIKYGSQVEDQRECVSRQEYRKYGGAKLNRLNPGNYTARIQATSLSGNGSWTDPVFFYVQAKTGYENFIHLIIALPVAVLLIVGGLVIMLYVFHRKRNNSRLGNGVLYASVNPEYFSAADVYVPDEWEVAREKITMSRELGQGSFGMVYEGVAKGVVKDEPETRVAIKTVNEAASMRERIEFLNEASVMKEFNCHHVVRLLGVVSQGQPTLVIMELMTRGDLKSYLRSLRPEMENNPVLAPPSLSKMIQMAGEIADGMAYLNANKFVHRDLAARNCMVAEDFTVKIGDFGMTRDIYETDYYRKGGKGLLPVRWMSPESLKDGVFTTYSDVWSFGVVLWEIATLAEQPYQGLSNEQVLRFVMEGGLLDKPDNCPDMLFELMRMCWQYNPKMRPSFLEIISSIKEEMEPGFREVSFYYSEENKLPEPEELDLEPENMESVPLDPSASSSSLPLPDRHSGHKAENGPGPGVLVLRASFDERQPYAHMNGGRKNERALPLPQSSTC
In another data set the target is insulin receptor kinase (Homo sapiens, UniProt P06213). The settings on record: cited from earlier work.
Sequence of insulin receptor kinase (P06213 28-1382): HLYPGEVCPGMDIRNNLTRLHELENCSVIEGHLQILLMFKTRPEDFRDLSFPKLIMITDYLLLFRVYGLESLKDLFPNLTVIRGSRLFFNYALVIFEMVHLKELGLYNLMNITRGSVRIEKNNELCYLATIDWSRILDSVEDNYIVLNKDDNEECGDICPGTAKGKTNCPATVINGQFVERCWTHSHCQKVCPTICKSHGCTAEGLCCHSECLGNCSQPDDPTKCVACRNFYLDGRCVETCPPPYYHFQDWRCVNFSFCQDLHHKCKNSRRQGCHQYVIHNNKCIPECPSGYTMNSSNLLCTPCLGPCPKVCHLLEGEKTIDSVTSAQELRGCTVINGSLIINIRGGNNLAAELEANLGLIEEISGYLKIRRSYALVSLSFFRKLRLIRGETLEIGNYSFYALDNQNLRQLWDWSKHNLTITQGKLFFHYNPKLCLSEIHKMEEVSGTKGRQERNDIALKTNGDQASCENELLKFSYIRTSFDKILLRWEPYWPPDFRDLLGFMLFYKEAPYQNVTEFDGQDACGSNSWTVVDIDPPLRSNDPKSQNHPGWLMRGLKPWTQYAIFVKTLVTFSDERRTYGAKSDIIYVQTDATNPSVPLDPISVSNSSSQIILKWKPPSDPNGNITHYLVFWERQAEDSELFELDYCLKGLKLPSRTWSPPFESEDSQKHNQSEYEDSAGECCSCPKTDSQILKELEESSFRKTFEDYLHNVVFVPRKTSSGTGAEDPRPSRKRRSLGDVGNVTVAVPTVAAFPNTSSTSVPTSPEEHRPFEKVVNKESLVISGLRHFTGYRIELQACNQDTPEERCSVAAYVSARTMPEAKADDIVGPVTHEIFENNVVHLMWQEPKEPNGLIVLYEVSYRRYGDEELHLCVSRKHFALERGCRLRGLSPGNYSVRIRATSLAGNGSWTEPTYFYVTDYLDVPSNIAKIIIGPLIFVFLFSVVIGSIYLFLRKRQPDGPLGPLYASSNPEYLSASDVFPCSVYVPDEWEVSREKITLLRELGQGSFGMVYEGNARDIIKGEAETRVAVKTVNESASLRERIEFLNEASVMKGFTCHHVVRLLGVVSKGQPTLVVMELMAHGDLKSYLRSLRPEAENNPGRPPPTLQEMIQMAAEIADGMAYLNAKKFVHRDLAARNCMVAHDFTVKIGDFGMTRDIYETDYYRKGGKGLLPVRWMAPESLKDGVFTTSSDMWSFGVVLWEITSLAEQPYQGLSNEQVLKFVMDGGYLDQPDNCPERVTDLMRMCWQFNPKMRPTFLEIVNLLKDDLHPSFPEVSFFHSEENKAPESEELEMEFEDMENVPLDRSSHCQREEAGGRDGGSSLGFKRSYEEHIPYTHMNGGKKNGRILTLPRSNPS

Sequence of IGF-1R (P08069 31-1367, species assumed): as the sequence (P08069 31-1367) above

Take `COc1cc([C@@H]2c3cc4c(cc3[C@H](O)[C@H]3COC(=O)[C@@H]23)OCO4)cc(OC)c1OC` [picropodophyllin]: the “effect on IGF-1R / inhibition of IGF-1R activity (in words)” value at IGF-1R is “equipotent to podophyllotoxin”. In addition, the “LD50 in rats, fold higher than podophyllotoxin” value in the data set with rats is on record as “more than 35 fold”. The “cell death in malignant cells (in words)” value with malignant cells was “equipotent to podophyllotoxin”. Besides, in the data set on microtubuli, the “affinity for microtubuli, fold lower than podophyllotoxin” value is 50 fold.

The term IC50 denotes the point on the concentration scale where inhibition reaches its midpoint. As for `N#C/C(=C\c1ccc(O)c(O)c1)C(=O)c1ccc(O)c(O)c1` [tyrphostin AG 538], on isolated IGF-1R kinase, the IC50 is 400 nM. The “effect on insulin receptor kinase” value on insulin receptor kinase is listed as “also blocked the insulin receptor kinase”.
